Laboratory results published in ChEMBL document CHEMBL1201862, “PubChem BioAssay data set” (2004).
Calls of active or inactive are those of the source.

System: not listed separately
Assay: HEp-2 cell cytotoxicity, dose response, cytotoxicity control for RSV inhibitor project, HTS (AID 2410)
Assay type: functional
Conditions: human respiratory syncytial virus

SMILES | CC50
Clc1ccc(-c2[nH]nc3c2CCCC3)cc1 | 37.1 µM (active)

System: not listed separately
Assay: Luminescence Cell-Based Dose Confirmation HTS to Identify Activators of 5'UTR Stem-Loop Driven Alpha-Synuclein mRNA Translation in H4 Neuroglioblastoma Cells. [Related pubchem assays: 1829 (Project Summary), 1814 (Primary HTS)]
Assay type: functional
Conditions: not given

SMILES | EC50
CCc1cc(C=C(Cl)Cl)oc(=O)c1C | 6.98 µM (active)
Cc1ccc(NC(=O)c2cc(=O)c3ccccc3o2)cc1 | 1.12 µM (active)
O=C(OCC(=O)c1cccs1)C1=COCCO1 | 15.4 µM (active)
Cc1ccc(C(=O)c2c3ccccc3[n+]([O-])n2[C@@H](C)C(N)=O)cc1 | 6.39 µM (active)
COc1ccc(CCC(=O)NCCS(=O)(=O)N2CCN(c3ccccc3OC)CC2)cc1 | > 120 µM (not active)
Cc1nn(C)c(=O)n1-c1ccc(OCc2ccccc2)cc1 | 8.8 µM (active)
O=C(NCCCN1CCCCC1)c1ccc2c(=O)n(CCc3ccccc3)c(=O)[nH]c2c1 | > 120 µM (not active)
[O-][n+]1c2ccccc2c2n1CCCN=C2c1ccc(Cl)cc1 | 7.98 µM (active)
Clc1ccc(-c2[nH]nc3c2CCCC3)cc1 | 10.4 µM (active)

System: not listed separately
Assay: Luminescence Cell-Based Dose Response HTS to Identify Activators of Luciferase Translation or Activity in H4 […] Cells. [Related pubchem assays: 1829 (Project Summary), 1814 (Primary HTS)]
Assay type: functional
Conditions: not given

SMILES | EC50
CCc1cc(C=C(Cl)Cl)oc(=O)c1C | 8.12 µM (active)
Cc1ccc(NC(=O)c2cc(=O)c3ccccc3o2)cc1 | 17.9 µM (active)
O=C(OCC(=O)c1cccs1)C1=COCCO1 | 9.36 µM (active)
Cc1ccc(C(=O)c2c3ccccc3[n+]([O-])n2[C@@H](C)C(N)=O)cc1 | 11.2 µM (active)
COc1ccc(CCC(=O)NCCS(=O)(=O)N2CCN(c3ccccc3OC)CC2)cc1 | > 120 µM (not active)
Cc1nn(C)c(=O)n1-c1ccc(OCc2ccccc2)cc1 | 49.9 µM (active)
O=C(NCCCN1CCCCC1)c1ccc2c(=O)n(CCc3ccccc3)c(=O)[nH]c2c1 | 12.2 µM (active)
[O-][n+]1c2ccccc2c2n1CCCN=C2c1ccc(Cl)cc1 | 8.34 µM (active)
Clc1ccc(-c2[nH]nc3c2CCCC3)cc1 | 16.2 µM (active)

System: not listed separately
Assay: cells
Assay type: functional, cell-based
Conditions: not given

SMILES | EC50
O=[N+]([O-])c1ccc(OCCCCN2CCCCC2)cc1 | > 350 µM (not active)
CN(Cc1cccc(C(F)(F)F)c1)C(=O)C1CCC(=O)N(CC2CCCCC2)C1 (stereo not drawn) | > 350 µM (not active)
CCC(=O)c1ccc(N2CCN(C(=O)c3ccc(Br)cc3)CC2)c(F)c1 | > 350 µM (not active)
CCCCOC(=O)c1ccc(NC(=S)NC(=O)c2c(Br)c(C)nn2C)cc1 | > 350 µM (not active)
CCOC(=O)c1ccc(S(=O)(=O)NNC(=O)COc2ccccc2C)cc1 | > 350 µM (not active)
CC(=O)c1ccc(N(C(=O)c2csnn2)C(C(=O)NC(C)(C)C)c2cccs2)cc1 (stereo not drawn) | > 350 µM (not active)
COC(=O)Nc1nnc(Cc2ccc(OC)cc2)s1 | > 350 µM (not active)
CCNS(=O)(=O)c1ccc(NC(=O)c2cncc(Br)c2)cc1 | > 350 µM (not active)
Cc1cc(SCC(=O)N/N=C/c2ccccc2C(=O)O)c(C)cc1Br | > 350 µM (not active)

System: H4
Assay: Luminescence Cell-Based Dose Response HTS to Identify Activators of 5'UTR Stem-Loop Driven Prion Protein mRNA Translation in H4 Neuroglioblastoma Cells. [Related pubchem assays: 1829 (Project Summary), 1814 (Primary HTS)]
Assay type: functional
Conditions: Homo sapiens

SMILES | EC50
CCc1cc(C=C(Cl)Cl)oc(=O)c1C | > 120 µM (not active)
Cc1ccc(NC(=O)c2cc(=O)c3ccccc3o2)cc1 | 21.6 µM (active)
O=C(OCC(=O)c1cccs1)C1=COCCO1 | 8.15 µM (active)
Cc1ccc(C(=O)c2c3ccccc3[n+]([O-])n2[C@@H](C)C(N)=O)cc1 | 38 µM (active)
COc1ccc(CCC(=O)NCCS(=O)(=O)N2CCN(c3ccccc3OC)CC2)cc1 | > 120 µM (not active)
Cc1nn(C)c(=O)n1-c1ccc(OCc2ccccc2)cc1 | 12.9 µM (active)
O=C(NCCCN1CCCCC1)c1ccc2c(=O)n(CCc3ccccc3)c(=O)[nH]c2c1 | 93.9 µM (active)
[O-][n+]1c2ccccc2c2n1CCCN=C2c1ccc(Cl)cc1 | 41.8 µM (active)
Clc1ccc(-c2[nH]nc3c2CCCC3)cc1 | 54.4 µM (active)

System: not listed separately
Assay: cells
Assay type: functional, cell-based
Conditions: not given
Remark: another data set of the same source

SMILES | EC50
O=[N+]([O-])c1ccc(OCCCCN2CCCCC2)cc1 | > 350 µM (not active)
CN(Cc1cccc(C(F)(F)F)c1)C(=O)C1CCC(=O)N(CC2CCCCC2)C1 (stereo not drawn) | > 350 µM (not active)
CCC(=O)c1ccc(N2CCN(C(=O)c3ccc(Br)cc3)CC2)c(F)c1 | > 350 µM (not active)
CCCCOC(=O)c1ccc(NC(=S)NC(=O)c2c(Br)c(C)nn2C)cc1 | 44.9 µM (active)
CCOC(=O)c1ccc(S(=O)(=O)NNC(=O)COc2ccccc2C)cc1 | > 350 µM (not active)
CC(=O)c1ccc(N(C(=O)c2csnn2)C(C(=O)NC(C)(C)C)c2cccs2)cc1 (stereo not drawn) | > 350 µM (not active)
COC(=O)Nc1nnc(Cc2ccc(OC)cc2)s1 | > 350 µM (not active)
CCNS(=O)(=O)c1ccc(NC(=O)c2cncc(Br)c2)cc1 | > 350 µM (not active)
Cc1cc(SCC(=O)N/N=C/c2ccccc2C(=O)O)c(C)cc1Br | > 350 µM (not active)

Biological target: T1, Heat shock factor protein 1 (Mus musculus, UniProt P38532)
T1 sequence (P38532 whole entry): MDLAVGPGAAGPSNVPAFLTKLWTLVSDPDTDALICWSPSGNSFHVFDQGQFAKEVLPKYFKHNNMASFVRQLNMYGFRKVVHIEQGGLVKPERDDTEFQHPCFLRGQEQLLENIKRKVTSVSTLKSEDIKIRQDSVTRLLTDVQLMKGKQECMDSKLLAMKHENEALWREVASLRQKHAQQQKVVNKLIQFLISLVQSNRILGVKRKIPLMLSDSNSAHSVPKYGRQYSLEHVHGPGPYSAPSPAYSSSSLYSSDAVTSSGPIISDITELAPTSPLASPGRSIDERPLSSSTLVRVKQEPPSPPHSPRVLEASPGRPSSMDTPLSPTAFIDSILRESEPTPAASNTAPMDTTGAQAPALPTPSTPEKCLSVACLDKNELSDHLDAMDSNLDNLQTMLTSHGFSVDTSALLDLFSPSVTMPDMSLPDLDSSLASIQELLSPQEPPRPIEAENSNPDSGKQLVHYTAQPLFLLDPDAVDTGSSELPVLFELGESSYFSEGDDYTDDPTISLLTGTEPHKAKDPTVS
Assay: HSF1 potentiators in luciferase reporter cells, confirmation, cell-based, NIH3T3, luminescence, dose retest (AID 435004);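 note: stress induced by proteasome inhibitor MG132 added 30 min after compound; luciferase reporter driven by HSF1 response element in NIH3T3 cells; actives raise luminescence as potentiators of the MG132 stress response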
Assay type: functional
Conditions: not given

SMILES | EC50
Cc1nc2ncnn2c(C)c1CCC(=O)NCc1ccco1 | > 260 µM (inactive)
O=C(CCCC1=NS(=O)(=O)c2ccccc2N1)N1CCN(c2ccccc2)CC1 | > 260 µM (inactive)
CCOc1ccc(C(=O)Nc2ccc3c(c2)OCCO3)cc1 | > 260 µM (inconclusive)
CC(C)(C)NC(=O)NC(=O)CN1CC=C(c2ccccc2)CC1 | > 260 µM (inactive)
Cc1nnc(Sc2nc3c(c(=O)n(C)c(=O)n3C)n2Cc2ccccc2Cl)s1 | > 260 µM (inactive)
CCc1cc(=O)oc2c(CNCc3ccccc3F)c(O)c(Cl)cc12 | > 260 µM (inactive)
Cc1cc2nc(CCN(C(S)=NCC3CCCO3)C3CCCC3)[nH]c2cc1C (stereo not drawn) | > 260 µM (inactive)
CCOC(=O)C1(Cc2ccc(OC)cc2)CCN(C(=O)c2cc3ccccc3[nH]2)CC1 | 30.3 µM (active)
CCN=C(S)N1CCN(S(=O)(=O)c2cccc(C(F)(F)F)c2)CC1 | > 260 µM (inactive)
CCOc1ccccc1CN1CCNC(=O)C1CC(=O)NCc1nccn1CC (stereo not drawn) | > 260 µM (inactive)
CCn1c(SCC(=O)N/N=C/C=C/c2ccco2)nc2ccccc21 | > 260 µM (inactive)
COc1ccc(/C=N/NC(=O)c2cccnc2)c(C(=O)O)c1OC | > 260 µM (inactive)

Biological target: Cytochrome P450 2C19 (Homo sapiens, UniProt P33261)
Sequence (P33261 whole entry): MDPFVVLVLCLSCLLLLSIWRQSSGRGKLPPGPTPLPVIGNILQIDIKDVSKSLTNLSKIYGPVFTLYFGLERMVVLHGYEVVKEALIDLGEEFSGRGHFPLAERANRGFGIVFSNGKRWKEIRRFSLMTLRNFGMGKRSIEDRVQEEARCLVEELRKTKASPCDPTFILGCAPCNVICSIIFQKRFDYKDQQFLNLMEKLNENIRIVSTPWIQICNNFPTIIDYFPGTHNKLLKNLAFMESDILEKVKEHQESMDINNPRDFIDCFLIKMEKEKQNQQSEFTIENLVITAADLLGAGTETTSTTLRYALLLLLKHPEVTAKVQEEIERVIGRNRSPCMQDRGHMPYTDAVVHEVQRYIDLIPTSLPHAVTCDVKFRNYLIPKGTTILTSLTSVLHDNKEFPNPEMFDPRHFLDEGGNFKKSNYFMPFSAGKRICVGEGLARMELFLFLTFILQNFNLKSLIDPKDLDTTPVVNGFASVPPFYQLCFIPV
Assay: Cytochrome panel assay with activity outcomes. Panel member name: p450-cyp2c19 Compounds with AC50 equal or less than 10 uM are considered active
Assay type: functional
Conditions: not given

SMILES | AC50
Cc1nc2ncnn2c(C)c1CCC(=O)NCc1ccco1 | inconclusive

Biological target: T2, Replicative DNA helicase DnaB (Mycobacterium tuberculosis, UniProt P9WMR3)
T2 sequence (P9WMR3 whole entry): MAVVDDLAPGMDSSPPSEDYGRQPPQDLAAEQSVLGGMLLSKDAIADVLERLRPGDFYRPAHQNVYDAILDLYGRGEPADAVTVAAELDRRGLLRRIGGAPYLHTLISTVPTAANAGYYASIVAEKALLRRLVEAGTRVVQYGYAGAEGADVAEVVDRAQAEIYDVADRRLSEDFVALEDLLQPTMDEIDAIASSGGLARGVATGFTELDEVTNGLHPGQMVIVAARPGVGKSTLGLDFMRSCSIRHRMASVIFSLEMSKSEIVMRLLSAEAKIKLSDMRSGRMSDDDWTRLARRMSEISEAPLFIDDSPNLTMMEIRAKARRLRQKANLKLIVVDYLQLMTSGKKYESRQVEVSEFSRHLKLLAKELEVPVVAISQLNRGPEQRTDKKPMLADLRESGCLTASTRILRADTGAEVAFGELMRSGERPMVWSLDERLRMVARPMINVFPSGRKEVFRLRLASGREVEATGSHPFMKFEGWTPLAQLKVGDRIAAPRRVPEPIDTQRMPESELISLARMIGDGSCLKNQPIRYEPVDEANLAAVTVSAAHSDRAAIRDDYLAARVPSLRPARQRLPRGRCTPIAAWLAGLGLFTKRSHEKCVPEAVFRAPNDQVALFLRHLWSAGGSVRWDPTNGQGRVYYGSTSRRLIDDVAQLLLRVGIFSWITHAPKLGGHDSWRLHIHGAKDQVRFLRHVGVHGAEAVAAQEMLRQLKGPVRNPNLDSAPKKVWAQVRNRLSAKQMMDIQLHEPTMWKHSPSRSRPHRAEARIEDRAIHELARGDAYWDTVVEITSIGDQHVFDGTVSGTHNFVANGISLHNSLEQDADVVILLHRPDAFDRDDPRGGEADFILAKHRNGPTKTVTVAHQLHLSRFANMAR
Assay: DnaB intein splicing inhibitors, dose response, biochemical, cell-free fluorescence (AID 449749)
Assay type: functional
Conditions: not given

SMILES | AC50
Cc1ccc(C)c(S(=O)(=O)Nc2ccc(O)c3ccccc23)c1 | 0.384 µM (active)

Biological target: T3, Protein RecA (Mycobacterium tuberculosis, UniProt P9WHJ3)
T3 sequence (P9WHJ3 whole entry): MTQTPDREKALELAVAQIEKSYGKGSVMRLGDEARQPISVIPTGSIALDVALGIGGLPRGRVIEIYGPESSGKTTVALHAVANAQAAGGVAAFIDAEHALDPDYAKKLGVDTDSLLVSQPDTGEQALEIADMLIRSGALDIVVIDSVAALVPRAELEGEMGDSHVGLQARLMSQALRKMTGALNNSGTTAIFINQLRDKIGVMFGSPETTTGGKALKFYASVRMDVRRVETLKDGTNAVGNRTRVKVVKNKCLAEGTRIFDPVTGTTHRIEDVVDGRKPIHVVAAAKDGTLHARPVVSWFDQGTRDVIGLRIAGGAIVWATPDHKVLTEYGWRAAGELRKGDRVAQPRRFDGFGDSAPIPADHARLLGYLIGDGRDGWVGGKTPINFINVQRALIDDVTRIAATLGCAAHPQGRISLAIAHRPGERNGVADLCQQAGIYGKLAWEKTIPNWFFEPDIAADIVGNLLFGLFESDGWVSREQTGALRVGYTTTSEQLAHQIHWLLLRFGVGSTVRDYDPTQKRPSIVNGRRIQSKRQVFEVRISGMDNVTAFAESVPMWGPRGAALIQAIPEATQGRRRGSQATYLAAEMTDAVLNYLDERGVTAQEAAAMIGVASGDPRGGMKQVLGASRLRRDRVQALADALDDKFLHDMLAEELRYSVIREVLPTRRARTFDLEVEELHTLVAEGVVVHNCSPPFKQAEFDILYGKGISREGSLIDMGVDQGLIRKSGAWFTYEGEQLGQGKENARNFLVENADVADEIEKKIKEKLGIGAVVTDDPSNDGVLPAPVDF
Assay: Fluorescence Cell-Free Homogeneous Dose Retest to Identify Inhibitors of RecA-Intein Splicing Activity. [Related pubchem assays (depositor defined):AID2097, AID2223, AID489010, AID492950]
Assay type: functional
Conditions: not given

SMILES | EC50
Cc1ccc(C)c(S(=O)(=O)Nc2ccc(O)c3ccccc23)c1 | 0.0745 µM (active)

System: INS1
Assay: beta cell apoptosis inhibitors, cytokine rescue, dose response, luminescence, retest (AID 449756);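 note: cell death triggered by IL-1 beta plus TNF-alpha plus IFN-gamma mixture; protective hits raise ATP signal compared with cytokine alone wells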
Assay type: functional, cell-based
Conditions: Rattus norvegicus

SMILES | AC50
Cc1ccc(C)c(S(=O)(=O)Nc2ccc(O)c3ccccc23)c1 | 7.62 µM (active)

Biological target: Cytochrome P450 3A4 (Homo sapiens, UniProt P08684);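 note: CYP3A4 tested as one member of a cytochrome P450 panel screen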
Sequence (P08684 whole entry): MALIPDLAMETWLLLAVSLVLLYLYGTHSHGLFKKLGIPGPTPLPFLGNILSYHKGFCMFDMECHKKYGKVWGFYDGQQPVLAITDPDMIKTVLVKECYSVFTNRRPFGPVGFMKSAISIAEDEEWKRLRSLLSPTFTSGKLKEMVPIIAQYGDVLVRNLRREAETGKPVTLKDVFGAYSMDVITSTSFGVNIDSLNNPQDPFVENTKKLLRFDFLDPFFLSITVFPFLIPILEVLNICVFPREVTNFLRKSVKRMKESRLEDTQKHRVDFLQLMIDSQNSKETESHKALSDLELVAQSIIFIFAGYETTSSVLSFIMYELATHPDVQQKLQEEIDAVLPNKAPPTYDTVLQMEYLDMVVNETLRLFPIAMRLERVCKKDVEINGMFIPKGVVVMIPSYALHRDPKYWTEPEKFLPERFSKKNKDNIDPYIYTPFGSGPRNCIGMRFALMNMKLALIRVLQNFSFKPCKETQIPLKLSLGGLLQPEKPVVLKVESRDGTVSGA
Assay: not given
Conditions: not given

SMILES | AC50
Cc1nc2ncnn2c(C)c1CCC(=O)NCc1ccco1 | 10 µM (inconclusive)
